The values that follow come from US10189816B2, “Substituted pyridines as inhibitors of human immunodeficiency virus replication” (priority 2015, dated 2019).

The experiment has as its system NL-RLuc virus. Nature of the experiment: Inhibition of HIV replication (NL-RLuc reporter virus in MT-2 cells, luciferase readout). The class given is cell-based. The conditions noted are these: Human immunodeficiency virus 1, MT2, 120 h. The source says: Inhibition of HIV replication: A recombinant NL-RLuc proviral clone was constructed in which a section of the nef gene from NL4-3 was replaced with the Renilla Luciferase gene. This virus is fully infectious and can undergo multiple cycles of replication in cell culture. In addition, the luciferous reporter provides a simple and easy method for quantitating the extent of virus growth and consequently, the antiviral activity of test compounds. The plasmid pNLRLuc contains the proviral NL-Rluc DNA cloned into pUC18 at the PvuII site. The NL-RLuc virus was prepared by transfection of 293T cells with the plasmid pNLRLuc. Transfections were performed using the LipofectAMINE PLUS kit from Invitrogen (Carlsbad, Calif.) according to the manufacturer and the virus generated was titered in MT-2 cells. For susceptibility analyses, the titrated virus was used to infect MT-2 cells in the presence of compound, and after 5 days of incubation, cells were processed and quantitated for virus growth by the amount of expressed luciferase. Assay media was RPMI 1640 supplemented with 10% heat inactivated fetal bovine serum (FBS), 100 units/ml penicillin G/100 units/ml streptomycin, 10 mM HEPES buffer pH 7.55 and 2 mM L-glutamine. The results from at least 2 experiments were used to calculate the EC50 values. Luciferase was quantitated using the Dual Luciferase kit from Promega (Madison, Wis.). Susceptibility of viruses to compounds was determined by incubation in the presence of serial dilutions of the compound. The 50% effective concentration (EC50) was calculated by using the exponential form of the median effect equation where (Fa)=1/[1+(ED50/drug conc.)^m] (Johnson V A, Byington R T. Infectivity Assay. In Techniques in HIV Research. ed. Aldovini A, Walker B D. 71-76. New York: Stockton Press.1990). Activity equal to A refers to a compound having an EC50≤100 nM, while B and C denote compounds having an EC50 between 100 nM and 1 uM (B) or >1 uM (C).

Where two headings read alike, the source gives them in different places.

Take `Cc1nc(C)c([C@H](OC(C)(C)C)C(=O)O)c(N2CCC(C)(C)CC2)c1-c1ccc2c(c1)CCN(Cc1ccc(Cl)c(F)c1)C2` [Compound 22, (S)-2-(tert-butoxy)-2-(5-(2-(4-chloro-3-fluorobenzyl)-1,2,3,4-tetrahydroisoquinolin-6-yl)-4-(4,4-dimethylpiperidin-1-yl)-2,6-dimethylpyridin-3-yl)acetic acid]: for the setting “read-out: Activity”, the EC50 is under 0.1 µM.

`Cc1cccc(Cl)c1CN1CCc2cc(-c3c(C)nc(C)c([C@H](OC(C)(C)C)C(=O)O)c3N3CCC(C)(C)CC3)ccc2C1` [Compound 23, (S)-2-(tert-butoxy)-2-(5-(2-(2-chloro-6-methylbenzyl)-1,2,3,4-tetrahydroisoquinolin-6-yl)-4-(4,4-dimethylpiperidin-1-yl)-2,6-dimethylpyridin-3-yl)acetic acid]: the EC50 is under 0.1 µM (read-out: Activity) and 0.003 µM (read-out: EC50 μM).

`Cc1nc(C)c([C@H](OC(C)(C)C)C(=O)O)c(N2CCC(C)(C)CC2)c1-c1ccc2c(c1)CCN(Cc1ccc(F)c(Cl)c1)C2` [Compound 24, (S)-2-(tert-butoxy)-2-(5-(2-(3-chloro-4-fluorobenzyl)-1,2,3,4-tetrahydroisoquinolin-6-yl)-4-(4,4-dimethylpiperidin-1-yl)-2,6-dimethylpyridin-3-yl)acetic acid]: under “read-out: Activity”, the EC50 is under 0.1 µM.

Turning to `Cc1cc(F)ccc1CN1CCc2cc(-c3c(C)nc(C)c([C@H](OC(C)(C)C)C(=O)O)c3N3CCC(C)(C)CC3)ccc2C1` [Compound 25, (S)-2-(tert-butoxy)-2-(4-(4,4-dimethylpiperidin-1-yl)-5-(2-(4-fluoro-2-methylbenzyl)-1,2,3,4-tetrahydroisoquinolin-6-yl)-2,6-dimethylpyridin-3-yl)acetic acid], under “read-out: Activity”, the EC50 is under 0.1 µM.

`Cc1nc(C)c([C@H](OC(C)(C)C)C(=O)O)c(N2CCC(C)(C)CC2)c1-c1ccc2c(c1)CCN(Cc1cc(Cl)cc(Cl)c1)C2` [Compound 26, (S)-2-(tert-butoxy)-2-(5-(2-(3,5-dichlorobenzyl)-1,2,3,4-tetrahydroisoquinolin-6-yl)-4-(4,4-dimethylpiperidin-1-yl)-2,6-dimethylpyridin-3-yl)acetic acid]: for the setting “read-out: Activity”, the EC50 was under 0.1 µM.

In the case of `Cc1nc(C)c([C@H](OC(C)(C)C)C(=O)O)c(N2CCC(C)(C)CC2)c1-c1ccc2c(c1)CCN(Cc1ccc(C(C)(C)C)cc1)C2` [Compound 27, (S)-2-(tert-butoxy)-2-(5-(2-(4-(tert-butyl)benzyl)-1,2,3,4-tetrahydroisoquinolin-6-yl)-4-(4,4-dimethylpiperidin-1-yl)-2,6-dimethylpyridin-3-yl)acetic acid], where the note is “read-out: Activity”, the EC50 was under 0.1 µM.

With `Cc1nc(C)c([C@H](OC(C)(C)C)C(=O)O)c(N2CCC(C)(C)CC2)c1-c1ccc2c(c1)CCN(Cc1cccc(Cl)c1)C2` [Compound 28, (S)-2-(tert-butoxy)-2-(5-(2-(3-chlorobenzyl)-1,2,3,4-tetrahydroisoquinolin-6-yl)-4-(4,4-dimethylpiperidin-1-yl)-2,6-dimethylpyridin-3-yl)acetic acid], the EC50 (read-out: Activity) was under 0.1 µM.

As to `Cc1ccc(C)c(CN2CCc3cc(-c4c(C)nc(C)c([C@H](OC(C)(C)C)C(=O)O)c4N4CCC(C)(C)CC4)ccc3C2)c1` [Compound 29, (S)-2-(tert-butoxy)-2-(5-(2-(2,5-dimethylbenzyl)-1,2,3,4-tetrahydroisoquinolin-6-yl)-4-(4,4-dimethylpiperidin-1-yl)-2,6-dimethylpyridin-3-yl)acetic acid], the EC50 (read-out: Activity) is under 0.1 µM.

Consider `Cc1nc(C)c([C@H](OC(C)(C)C)C(=O)O)c(N2CCC(C)(C)CC2)c1-c1ccc2c(c1)CCN(Cc1c(F)cccc1C(F)(F)F)C2` [Compound 30, (S)-2-(tert-butoxy)-2-(4-(4,4-dimethylpiperidin-1-yl)-5-(2-(2-fluoro-6-(trifluoromethyl)benzyl)-1,2,3,4-tetrahydroisoquinolin-6-yl)-2,6-dimethylpyridin-3-yl)acetic acid], for which, where the note is “read-out: Activity”, the EC50 is under 0.1 µM.

Turning to `Cc1nc(C)c([C@H](OC(C)(C)C)C(=O)O)c(N2CCC(C)(C)CC2)c1-c1ccc2c(c1)CCN(Cc1cc(F)cc(F)c1)C2` [Compound 31, (S)-2-(tert-butoxy)-2-(5-(2-(3,5-difluorobenzyl)-1,2,3,4-tetrahydroisoquinolin-6-yl)-4-(4,4-dimethylpiperidin-1-yl)-2,6-dimethylpyridin-3-yl)acetic acid], the EC50 by setting is: (read-out: Activity) under 0.1 µM; (read-out: EC50 μM) 0.011 µM.

In the case of `Cc1nc(C)c([C@H](OC(C)(C)C)C(=O)O)c(N2CCC(C)(C)CC2)c1-c1ccc2c(c1)CCN(Cc1cccc(C(F)(F)F)c1F)C2` [Compound 32, (S)-2-(tert-butoxy)-2-(4-(4,4-dimethylpiperidin-1-yl)-5-(2-(2-fluoro-3-(trifluoromethyl)benzyl)-1,2,3,4-tetrahydroisoquinolin-6-yl)-2,6-dimethylpyridin-3-yl)acetic acid], the EC50 (read-out: Activity) is under 0.1 µM.

Regarding `Cc1cccc(C)c1CN1CCc2cc(-c3c(C)nc(C)c([C@H](OC(C)(C)C)C(=O)O)c3N3CCC(C)(C)CC3)ccc2C1` [Compound 33, (S)-2-(tert-butoxy)-2-(5-(2-(2,6-dimethylbenzyl)-1,2,3,4-tetrahydroisoquinolin-6-yl)-4-(4,4-dimethylpiperidin-1-yl)-2,6-dimethylpyridin-3-yl)acetic acid], the EC50 (read-out: Activity) is under 0.1 µM.

Regarding `Cc1nc(C)c([C@H](OC(C)(C)C)C(=O)O)c(N2CCC(C)(C)CC2)c1-c1ccc2c(c1)CCN(Cc1cc(F)c(F)c(F)c1)C2` [Compound 34, (S)-2-(tert-butoxy)-2-(4-(4,4-dimethylpiperidin-1-yl)-2,6-dimethyl-5-(2-(3,4,5-trifluorobenzyl)-1,2,3,4-tetrahydroisoquinolin-6-yl)pyridin-3-yl)acetic acid], the EC50 (read-out: Activity) was under 0.1 µM.

Regarding `Cc1nc(C)c([C@H](OC(C)(C)C)C(=O)O)c(N2CCC(C)(C)CC2)c1-c1ccc2c(c1)CCN(Cc1ccc(F)cc1Cl)C2` [Compound 35, (S)-2-(tert-butoxy)-2-(5-(2-(2-chloro-4-fluorobenzyl)-1,2,3,4-tetrahydroisoquinolin-6-yl)-4-(4,4-dimethylpiperidin-1-yl)-2,6-dimethylpyridin-3-yl)acetic acid], the EC50 (read-out: Activity) is under 0.1 µM.

In the case of `Cc1nc(C)c([C@H](OC(C)(C)C)C(=O)O)c(N2CCC(C)(C)CC2)c1-c1ccc2c(c1)CCN(Cc1cccc(C(C)C)c1)C2` [Compound 36, (S)-2-(tert-butoxy)-2-(4-(4,4-dimethylpiperidin-1-yl)-5-(2-(3-isopropylbenzyl)-1,2,3,4-tetrahydroisoquinolin-6-yl)-2,6-dimethylpyridin-3-yl)acetic acid], the EC50 (read-out: Activity) was under 0.1 µM.

`Cc1nc(C)c([C@H](OC(C)(C)C)C(=O)O)c(N2CCC(C)(C)CC2)c1-c1ccc2c(c1)CCN(Cc1ccc(F)c(F)c1)C2` [Compound 37, (S)-2-(tert-butoxy)-2-(5-(2-(3,4-difluorobenzyl)-1,2,3,4-tetrahydroisoquinolin-6-yl)-4-(4,4-dimethylpiperidin-1-yl)-2,6-dimethylpyridin-3-yl)acetic acid]: the EC50 (read-out: Activity) is under 0.1 µM.

For the compound `Cc1nc(C)c([C@H](OC(C)(C)C)C(=O)O)c(N2CCC(C)(C)CC2)c1-c1ccc2c(c1)CCN(Cc1cc(F)ccc1F)C2` [Compound 38, (S)-2-(tert-butoxy)-2-(5-(2-(2,5-difluorobenzyl)-1,2,3,4-tetrahydroisoquinolin-6-yl)-4-(4,4-dimethylpiperidin-1-yl)-2,6-dimethylpyridin-3-yl)acetic acid], the EC50 runs as follows: (read-out: Activity) under 0.1 µM; (read-out: EC50 μM) 0.006 µM.

As for `Cc1nc(C)c([C@H](OC(C)(C)C)C(=O)O)c(N2CCC(C)(C)CC2)c1-c1ccc2c(c1)CCN(Cc1ccc(Cl)cc1F)C2` [Compound 39, (S)-2-(tert-butoxy)-2-(5-(2-(4-chloro-2-fluorobenzyl)-1,2,3,4-tetrahydroisoquinolin-6-yl)-4-(4,4-dimethylpiperidin-1-yl)-2,6-dimethylpyridin-3-yl)acetic acid], the EC50 (read-out: Activity) is under 0.1 µM.

`Cc1nc(C)c([C@H](OC(C)(C)C)C(=O)O)c(N2CCC(C)(C)CC2)c1-c1ccc2c(c1)CCN(Cc1cccc(Cl)c1Cl)C2` [Compound 40, (S)-2-(tert-butoxy)-2-(5-(2-(2,3-dichlorobenzyl)-1,2,3,4-tetrahydroisoquinolin-6-yl)-4-(4,4-dimethylpiperidin-1-yl)-2,6-dimethylpyridin-3-yl)acetic acid]: the EC50 (read-out: Activity) was under 0.1 µM.

With `Cc1nc(C)c([C@H](OC(C)(C)C)C(=O)O)c(N2CCC(C)(C)CC2)c1-c1ccc2c(c1)CCN(Cc1ccc(F)c(F)c1F)C2` [Compound 41, (S)-2-(tert-butoxy)-2-(4-(4,4-dimethylpiperidin-1-yl)-2,6-dimethyl-5-(2-(2,3,4-trifluorobenzyl)-1,2,3,4-tetrahydroisoquinolin-6-yl)pyridin-3-yl)acetic acid], for the setting “read-out: Activity”, the EC50 was under 0.1 µM.
